Source: patent US8183236B2, “Compounds with HIV-1 integrase inhibitory activity and use thereof as anti-HIV/AIDS therapeutics” (University of Southern California, priority 2007, dated 2012)

Columns and labels:
[1] = molecular target: T1, HIV-1 integrase (wild-type IN) (Human immunodeficiency virus type 1 group M subtype B, UniProt P12497); assay: HIV-1 integrase strand transfer assay (32P-labeled 21-mer, gel); assay type: biochemical
Text: (§1) The oligonucleotides 21 top, 5′-[…]-3′ (SEQ ID NO:1) and 21 bot, 5′-[…]-3′ (SEQ ID NO:2) were purchased from Norris Cancer Center Core Facility (University of Southern California) and purified by UV shadowing on polyacrylamide gel. To analyze the extent of 3′-processing and strand transfer using 5′-end labeled substrates, 21 top was 5′-end labeled using T4 polynucleotide kinase (Epicentre, Madison, Wis.) and γ [^32P]-ATP (Amersham Biosciences or ICN). The kinase was heat-inactivated and 21 bot was added in 1.5-molar excess. The mixture was heated at 95° C., allowed to cool slowly to room temperature, and run through a spin 25 mini-column (USA Scientific) to separate annealed double-stranded oligonucleotide from unincorporated material.
(§2) To determine the extent of 3′-processing and strand transfer, wild-type IN was preincubated at a final concentration of 200 nM with the inhibitor in reaction buffer (50 mM NaCl, 1 mM HEPES, pH 7.5, 50 μM EDTA, 50 μM dithiothreitol, 10% glycerol (w/v), 7.5 mM MnCl2, 0.1 mg/ml bovine serum albumin, 10 mM 2-mercaptoethanol, 10% dimethyl sulfoxide, and 25 mM MOPS, pH 7.2) at 30° C. for 30 min. Then, 20 nM of the 5′-end ^32P-labeled linear oligonucleotide substrate was added, and incubation was continued for an additional one hour. Reactions were quenched by the addition of an equal volume (16 μl) of loading dye (98% deionized formamide, 10 mM EDTA, 0.025% xylene cyanol and 0.025% bromophenol blue). An aliquot (5 μl) was electrophoresed on a denaturing 20% polyacrylamide gel (0.09 M tris-borate pH 8.3, 2 mM EDTA, 20% acrylamide, 8M urea).
(§3) Gels were dried, exposed in a PhosphorImager cassette, and analyzed using a Typhoon 8610 Variable Mode Imager (Amersham Biosciences) and quantitated using ImageQuant 5.2. Percent inhibition (% I) was calculated using the following equation: %I=100×[1−(D−C)/(N−C)]
(§4) where C, N, and D are the fractions of 21-mer substrate converted to 19-mer (3′-processing product) or strand transfer products for DNA alone, DNA plus IN, and IN plus drug, respectively. The IC50 values were determined by plotting the logarithm of drug concentration versus percent inhibition to obtain concentration that produced 50% inhibition. […]

[2] = molecular target: T1, HIV-1 integrase (wild-type IN); assay: HIV-1 integrase 3′-processing assay (32P-labeled 21-mer, gel); assay type: biochemical
Text: as §1, §2, §3, §4

[3] = unit inferred, read-out: IN inhibition activity Strand transfer
[4] = unit inferred, read-out: IN inhibition activity 3′-processing
[5] = wild-type IN 200 nM, 7.5 mM MnCl2, read-out: Inhibition of IN Catalytic Activities IC50 (μM) Strand Transfer
[6] = wild-type IN 200 nM, 7.5 mM MnCl2, read-out: Inhibition of IN Catalytic Activities IC50 (μM) 3′-processing
[7] = Table 54, read-out: IN inhibition activity Strand transfer
[8] = Table 54, read-out: IN inhibition activity 3′-processing
[9] = unit inferred, read-out: HIV-1 IN Inhibitory Activities Strand transfer
[10] = unit inferred, read-out: HIV-1 IN Inhibitory Activities 3′-processing

O=C(O)c1cc(-c2ccc(/C=c3\sc4nc5ccccc5n4c3=O)o2)ccc1Cl [AV15A22]
IC50 [1, 3]: 15 ± 4 µM | IC50 [2, 4]: 23 ± 3 µM

CCn1cc(C(=O)O)c(=O)c2cnc(N3CCN(C(=S)NC(=O)c4ccc(F)c(F)c4)CC3)nc21 [ROM3A4]
IC50 [1, 5]: 59 µM | IC50 [2, 6]: 64 µM

Cc1ccc2[nH]c(/C(C#N)=C\c3ccc(-c4ccc(C(=O)O)c(O)c4)o3)nc2c1 [Compound X132]
IC50 [1, 5]: 8 ± 1 µM | IC50 [2, 6]: 16 ± 5 µM

COc1ccc(/C=C2\C(=O)N(c3nnn[nH]3)N=C2C)cc1OCc1ccccc1Cl [GLD12]
IC50 [1, 7]: 5 ± 3 µM | IC50 [2, 8]: 14 ± 7 µM

CCCCn1c(=O)c(C(=O)Nc2ccccc2S(N)(=O)=O)c(O)c2ccccc21 [XR14]
IC50 [1, 5]: 17 µM | IC50 [2, 6]: 15 µM

Cc1ccc(C=C2SC(=S)N(CC(=O)Nc3ccc([N+](=O)[O-])cc3O)C2=O)cc1 [Compound X195]
IC50 [1, 5]: > 100 µM | IC50 [2, 6]: > 100 µM

COC(=O)c1ccc(/C=N/Nc2nc3nonc3nc2Nc2ccccc2F)cc1 [AV15A19]
IC50 [1, 3]: > 100 µM | IC50 [2, 4]: > 100 µM

O=C(c1ccccc1)c1cc(Br)ccc1NC(=O)c1nc[nH]c1C(=O)O [Example X160]
IC50 [1, 9]: 17 µM | IC50 [2, 10]: 16 µM

O=C(CN1C(=O)/C(=C2\SC(=S)N(CC(=O)Nc3ccc(O)cc3)C2=O)SC1=S)Nc1ccc(O)cc1 [Compound X103]
IC50 [1, 5]: 69 µM | IC50 [2, 6]: 59 ± 37 µM

Cc1cc([N+](=O)[O-])ccc1-c1ccc(/C=C/c2ccc3cccc(O)c3n2)o1 [RT31]
IC50 [1, 5]: > 100 µM | IC50 [2, 6]: 57 µM

O=C(N/N=C1/C(=O)Nc2ccc(F)cc21)/C(=C/C=C/c1ccccc1)NC(=O)c1ccccc1 [Compound X231]
IC50 [1, 9]: 38 µM | IC50 [2, 10]: 60 µM

COc1ccc(CCNC(=O)CC(=O)N/N=C/c2ccco2)cc1OC [Example X134]
IC50 [1, 9]: 90 µM | IC50 [2, 10]: > 100 µM

O=C(O)c1cccc(-c2ccc(/C=C3\Sc4ccccc4C3=O)o2)c1 [AV15A6]
IC50 [1, 3]: 24 µM | IC50 [2, 4]: 76 µM

Cc1nc(=O)c(-c2ccccc2)c(C)n1-c1ccc(C(=O)O)c(O)c1 [Compound X181]
IC50 [1, 5]: 73 ± 24 µM

O=C(NNC(=O)c1c(O)c2ccccc2[nH]c1=O)c1ccccc1Cl [XR44]
IC50 [1, 5]: 26 µM | IC50 [2, 6]: 28 µM

N#C/C(=C\c1ccc(-c2cc(Cl)ccc2C(=O)O)o1)c1nc2ccccc2[nH]1 [AV15A52]
IC50 [1, 3]: 51 µM

Oc1ccccc1/C=N/CC(O)C/N=C/c1ccccc1O [Example X208]
IC50 [1, 9]: 61 µM | IC50 [2, 10]: 97 µM

CCCc1cc2c(-c3ccccc3)cc(=O)oc2cc1OCc1ccc(C(=O)O)o1 [OT32]
IC50 [1, 5]: 57 ± 22 µM | IC50 [2, 6]: 72 ± 8 µM

O=C(Nc1ccc(O)c(-c2nc3cc(Cl)ccc3o2)c1)c1cccnc1 [Compound X255]
IC50 [1, 9]: 10 µM | IC50 [2, 10]: 61 µM

O=C(NC1CC1)c1c[nH]c2ccc(S(=O)(=O)Nc3cccc(C(F)(F)F)c3)cc2c1=O [ROM3A10]
IC50 [1, 5]: 92 µM | IC50 [2, 6]: 93 µM

COc1ccc(C=C2SC(=S)N(CCC(=O)Nc3ccc(C(=O)O)c(O)c3)C2=O)cc1OC [Compound X192]
IC50 [1, 5]: 17 ± 4 µM | IC50 [2, 6]: 61 ± 34 µM

Cc1ccc(S(=O)(=O)N(CC(=O)Nc2ccccc2C(=O)O)c2cccc(Cl)c2)cc1 [OT24]
IC50 [1, 5]: 71 ± 23 µM | IC50 [2, 6]: 98 ± 5 µM

O=C(CCN1C(=O)C(=Cc2cccs2)SC1=S)Nc1ccc(O)c(C(=O)O)c1 [Compound X172]
IC50 [1, 5]: 38 ± 16 µM | IC50 [2, 6]: 38 ± 16 µM

Cc1cc2nc(-c3cc(NC(=O)c4ccc(F)cc4)ccc3O)oc2cc1C [XR16]
IC50 [1, 9]: < 100 µM | IC50 [2, 10]: < 100 µM

O=C(O)CCN1C(=O)/C(=C\c2ccc(-c3cccc(Cl)c3)o2)SC1=S [RT23]
IC50 [1, 5]: 21 µM | IC50 [2, 6]: > 100 µM

O=C(O)c1cccc(-c2ccc(/C=N/Nc3nc(Nc4ccccc4)nc(Nc4ccccc4)n3)o2)c1 [AV15A42]
IC50 [2, 4]: 89 ± 19 µM

Oc1cccc2ccc(/C=C/c3ccc(-c4cccc(Cl)c4)o3)nc12 [RT29]
IC50 [1, 5]: 70 µM | IC50 [2, 6]: 30 µM

COc1ccc2oc(=O)c(-c3csc(N/N=C/c4ccco4)n3)cc2c1 [Compound X144]
IC50 [1, 9]: 29 µM | IC50 [2, 10]: 78 µM

CCn1cc(C(=O)O)c(=O)c2cc(F)c(N3CCN(C(=O)c4cccc(C)c4)CC3)cc21 [ROM3A3]
IC50 [1, 5]: > 100 µM | IC50 [2, 6]: > 100 µM

COc1cc(C(=O)N/N=C/c2ccc(-c3cccc(C(=O)O)c3)o2)cc(OC)c1OC [AV15A38]
IC50 [1, 3]: 49 ± 12 µM | IC50 [2, 4]: > 100 µM

O=C(N/N=C/c1ccc(-c2ccc(Cl)c(Cl)c2)o1)c1ccccc1O [OT8]
IC50 [1, 5]: 14 ± 4 µM | IC50 [2, 6]: 31 ± 16 µM

CCn1cc(C(=O)O)c(=O)c2cc(F)c(N3CCN(S(=O)(=O)c4ccc(NC(C)=O)cc4)CC3)cc21 [SR9]
IC50 [1, 5]: > 100 µM | IC50 [2, 6]: > 100 µM

COc1cc(C=C2SC(=S)N(CCC(=O)Nc3ccc(C(=O)O)cc3)C2=O)cc(OC)c1OC [Compound X173]
IC50 [1, 5]: 85 ± 15 µM | IC50 [2, 6]: 97 ± 6 µM

O=C(Nc1nncs1)c1c(O)c2ccccc2n(Cc2ccccc2)c1=O [LM33]
IC50 [1, 5]: 36 µM

O=C(CCN1C(=O)/C(=C/c2ccc3c(c2)OCO3)SC1=S)Nc1ccc2c(c1)OCO2 [Compound X187]
IC50 [1, 5]: 93 ± 12 µM | IC50 [2, 6]: 97 ± 6 µM

CCOc1cc(/C=C2\SC(=S)N(NC(=O)c3ccccc3O)C2=O)ccc1O [Compound X223]
IC50 [1, 5]: 38 ± 14 µM | IC50 [2, 6]: 70 ± 27 µM

N#C/C(=C\c1ccc(-c2ccc(Cl)c(C(=O)O)c2)o1)c1nc2ccccc2[nH]1 [AV15A10]
IC50 [1, 3]: 30 µM | IC50 [2, 4]: 76 µM

O=C(N/N=C1\C(=O)Nc2ccc(Br)cc21)/C(O)=C/C(=O)c1ccc(Cl)cc1 [Example X115]
IC50 [1, 9]: 28 µM | IC50 [2, 10]: 42 µM

O=C(Nc1ncccc1O)c1c(O)c2cccc3c2n(c1=O)CCC3 [LM11]
IC50 [1, 5]: 15 µM | IC50 [2, 6]: 56 µM

CCOc1cc(N(CC)CC)ccc1/C=C1\C(=O)N(c2nnn[nH]2)N=C1C [GLD12A1]
IC50 [1, 7]: 65 ± 8 µM | IC50 [2, 8]: 61 ± 8 µM

COc1ccc(-c2nnc(SCC(=O)NNC(=O)c3ccccc3O)n2-c2ccccc2)cc1OC [AS9A10]
IC50 [1, 3]: 21 ± 1 µM | IC50 [2, 4]: 22 ± 1 µM

Nc1cc(N)nc(SCC(=O)O)n1 [GLD2A3]
IC50 [1, 3]: > 100 µM | IC50 [2, 4]: > 100 µM

CCn1c(=O)c(C(=O)Nc2ccccc2O)c(O)c2ccccc21 [XR10]
IC50 [1, 5]: 32 µM | IC50 [2, 6]: 72 µM

CC(=Cc1ccccc1)C=C1SC(=S)N(CCC(=O)Nc2ccc(O)c(C(=O)O)c2)C1=O [Compound X185]
IC50 [1, 5]: 23 ± 3 µM | IC50 [2, 6]: 36 ± 23 µM

COc1cc(/C=C2/SC(=S)N(CC(=O)O)C2=O)ccc1OCc1ccccc1Cl [OT4]
IC50 [1, 5]: 22 ± 4 µM | IC50 [2, 6]: 48 ± 7 µM

COc1ccc(/C=N/NC(=O)CSc2nnc(-c3ccccc3)n2-c2ccccc2)c(C(=O)O)c1OC [OT10]
IC50 [1, 3]: > 100 µM | IC50 [2, 4]: > 100 µM

C=CCn1c(=O)c(C(=O)Nc2ccccc2OC)c(O)c2ccccc21 [XR3]
IC50 [1, 5]: 25 µM

Cc1ccc(C=C2SC(=S)N(CCC(=O)Nc3cccc(C(=O)O)c3)C2=O)cc1 [Compound X100]
IC50 [1, 5]: > 100 µM

CCn1c(=O)c(C(=O)Nc2ccccc2C(=O)OC)c(O)c2ccccc21 [XR15]
IC50 [1, 5]: 9.5 µM

COc1ccccc1C=C1SC(=S)N(CCC(=O)Nc2ccc(O)cc2)C1=O [Compound X118]
IC50 [2, 6]: 99 ± 3 µM

COC(=O)C1=C(C(=O)OC)SC(=C2C(=S)C(C)(C)N(C(=O)c3cccnc3)c3ccc(C)cc32)S1 [RT25]
IC50 [2, 6]: > 100 µM

Cc1cccc(Nc2nc3nonc3nc2N/N=C/c2ccc(-c3ccccc3Cl)o2)c1C [AV15A33]
IC50 [2, 4]: > 100 µM

COC(=O)c1ccc(C(=O)OC)c(NC(=O)c2ccc(C)c([N+](=O)[O-])c2)c1 [Compound X19]
IC50 [2, 6]: 92 µM

O=C1C(=Cc2c(NCCO)nc3ccccn3c2=O)SC(=S)N1Cc1ccco1 [Compound X281]
IC50 [2, 6]: > 100 µM

Nc1nonc1-c1nc2ccccc2n1CC(=O)N/N=C/c1ccc(-c2cccc(C(=O)O)c2)o1 [NST20]
IC50 [1, 5]: 68 µM

O=C(N/N=C/c1ccc(-c2ccc(Cl)cc2)o1)c1ccccc1 [AV15A29]
IC50 [2, 4]: > 100 µM

O=C(CCCN1C(=O)/C(=C/c2cccs2)SC1=S)Nc1nc2ccccc2s1 [Compound X178]
IC50 [2, 6]: 98 ± 5 µM

CCOC(=O)CCc1cc(C(=O)OCC)c(CCC(=O)OCC)cc1C(=O)OCC [Compound X35]
IC50 [1, 5]: 94 µM

O=C(NN1C(=O)/C(=C/c2ccc(Br)cc2)SC1=S)c1ccccc1O [Compound X220]
IC50 [1, 5]: 27 ± 6 µM
